Columns and labels:
Format in all cases: physicochemical
[1] = Visual aqueous solubility
Protocol: Form 1 (10 mg) was weighed into a glass vial and water was added in 100 μL portions up to 3 mL then 1 mL portions thereafter. Solubility was assessed visually following a brief period of equilibration.
Form 18 (10 mg) was weighed into a glass vial and water was added in 100 μL portions up to 3 mL then 1 mL portions thereafter. Solubility was assessed visually following a brief period of equilibration.
Form 8 (10 mg) was weighed into a glass vial and water was added in 100 μL portions up to 3 mL then 1 mL portions thereafter. Solubility was assessed visually following a brief period of equilibration.
Form 15 (10 mg) was weighed into a glass vial and water was added in 100 μL portions up to 3 mL then 1 mL portions thereafter. Solubility was assessed visually following a brief period of equilibration.
Form 16 (10 mg) was weighed into a glass vial and water was added in 100 μL portions up to 3 mL then 1 mL portions thereafter. Solubility was assessed visually following a brief period of equilibration.

Slurry studies = conditions: 72 hrs; for XRPD of solid after slurry versus starting form: 90/10 IPA/water, ambient temperature
Protocol: Form 1 (20 mg) was suspended in 90/10 IPA/water (200 μL or […]) and shaken at ambient temperature for 72 hrs. The supernatant was evaporated rather than filtered due to the small volume and the resulting solid was examined by XRPD (FIG. 6).
The supernatant was evaporated rather than filtered due to the small volume and the resulting solid was examined by XRPD (FIG. 28).
The supernatant was evaporated rather than filtered due to the small volume and the resulting solid was examined by XRPD (FIG. 34).
The supernatant was evaporated rather than filtered due to the small volume and the resulting solid was examined by XRPD (FIG. 40).

[2] = Gravimetric Vapour Sorption (GVS)
Protocol: Gravimetric Vapour Sorption (GVS) data were collected using the following method: Approximately 10 mg of sample was placed into a wire-mesh vapour sorption balance pan and loaded into an ‘IgaSorp’ vapour sorption balance (Hiden Analytical Instruments). The sample was then dried by maintaining a 0% humidity environment until no further weight change was recorded. Subsequently, the sample was then subjected to a ramping profile from 0-90% RH at 10% RH increments, maintaining the sample at each step until equilibration had been attained (99% step completion). Upon reaching equilibration, the % RH within the apparatus was ramped to the next step and the equilibration procedure repeated. After completion of the sorption cycle, the sample was then dried using the same procedure. The weight change during the sorption/desorption cycles were then monitored, allowing for the hygroscopic nature of the sample to be determined.

Q: Which results are given for `COCc1nn(Cc2ccc(Cn3ccccc3=O)cc2)cc1C(=O)NCc1nccc(OC)c1F.O=S(=O)(O)O` [Form 8, N-[(3-fluoro-4-methoxypyridin-2-yl)methyl]-3-(methoxymethyl)-1-({4-[(2-oxopyridin-1-yl)methyl]phenyl}methyl)pyrazole-4-carboxamide sulfate]?
A: Aqueous solubility (in words) [1]: excellent aqueous solubility; solubility ([1]; water, thermodynamic from solid): ~100 mg/mL; XRPD of solid after slurry versus starting form (Slurry studies): no change in the X-ray pattern; %-Wt (dry basis) ([2]; adsorption, about 0 %-RH): 0.03946%; %-Wt (dry basis) ([2]; adsorption, about 10 %-RH): 0.4404%; %-Wt (dry basis) ([2]; adsorption, about 20 %-RH): 0.6163%; %-Wt (dry basis) ([2]; adsorption, about 30 %-RH): 0.7771%; %-Wt (dry basis) ([2]; adsorption, about 40 %-RH): 0.6383%; %-Wt (dry basis) ([2]; adsorption, about 50 %-RH): 0.8735%; %-Wt (dry basis) ([2]; adsorption, about 60 %-RH): 1.214%; %-Wt (dry basis) ([2]; adsorption, about 70 %-RH): 2.0577%; %-Wt (dry basis) ([2]; adsorption, about 80 %-RH): 3.99%; %-Wt (dry basis) ([2]; adsorption, about 90 %-RH): 14.16%; %-Wt (dry basis) ([2]; desorption, about 0 %-RH): 0.000552%; %-Wt (dry basis) ([2]; desorption, about 5 %-RH): 0.07837%; %-Wt (dry basis) ([2]; desorption, about 15 %-RH): 0.2289%; %-Wt (dry basis) ([2]; desorption, about 25 %-RH): 0.3947%; %-Wt (dry basis) ([2]; desorption, about 35 %-RH): 0.2459%; %-Wt (dry basis) ([2]; desorption, about 45 %-RH): 0.5639%; %-Wt (dry basis) ([2]; desorption, about 55 %-RH): 0.9496%; %-Wt (dry basis) ([2]; desorption, about 65 %-RH): 1.643%; %-Wt (dry basis) ([2]; desorption, about 75 %-RH): 3.436%; %-Wt (dry basis) ([2]; desorption, about 85 %-RH): 6.295%; Increase in water content by GVS (hygroscopicity, in words) ([2]; up to 70% relative humidity): only a relatively gradual increase in water content

Q: Which results are given for `COCc1nn(Cc2ccc(Cn3ccccc3=O)cc2)cc1C(=O)NCc1nccc(OC)c1F.Cl` [Form 18, N-[(3-fluoro-4-methoxypyridin-2-yl)methyl]-3-(methoxymethyl)-1-({4-[(2-oxopyridin-1-yl)methyl]phenyl}methyl)pyrazole-4-carboxamide hydrochloride]?
A: XRPD of solid after slurry versus starting form (Slurry studies): different to that of Form 18; %-Wt (dry basis) ([2]; adsorption, about 0 %-RH): 0.000338%; %-Wt (dry basis) ([2]; adsorption, about 10 %-RH): 0.2364%; %-Wt (dry basis) ([2]; adsorption, about 20 %-RH): 0.3723%; %-Wt (dry basis) ([2]; adsorption, about 30 %-RH): 0.5037%; %-Wt (dry basis) ([2]; adsorption, about 40 %-RH): 0.6618%; %-Wt (dry basis) ([2]; adsorption, about 50 %-RH): 0.9246%; %-Wt (dry basis) ([2]; adsorption, about 60 %-RH): 9.109%; %-Wt (dry basis) ([2]; adsorption, about 70 %-RH): 9.603%; %-Wt (dry basis) ([2]; adsorption, about 80 %-RH): 13.9262%; %-Wt (dry basis) ([2]; adsorption, about 90 %-RH): 66.83%; %-Wt (dry basis) ([2]; desorption, about 0 %-RH): 0.35%; %-Wt (dry basis) ([2]; desorption, about 5 %-RH): 2.227%; %-Wt (dry basis) ([2]; desorption, about 15 %-RH): 3.448%; %-Wt (dry basis) ([2]; desorption, about 25 %-RH): 4.993%; %-Wt (dry basis) ([2]; desorption, about 35 %-RH): 7.125%; %-Wt (dry basis) ([2]; desorption, about 45 %-RH): 9.624%; %-Wt (dry basis) ([2]; desorption, about 55 %-RH): 12.7659%; %-Wt (dry basis) ([2]; desorption, about 65 %-RH): 17.34%; %-Wt (dry basis) ([2]; desorption, about 75 %-RH): 24.5%; %-Wt (dry basis) ([2]; desorption, about 85 %-RH): 40.16%

Q: With “N-[(3-fluoro-4-methoxypyridin-2-yl)methyl]-3-(methoxymethyl)-1-({4-[(2-oxopyridin-1-yl)methyl]phenyl}methyl)pyrazole-4-carboxamide edisylate [Form 15]” as the molecule, how does the Aqueous solubility ([1]; water, assessed visually) read?
A: ~100 mg/mL

Q: And the “Aqueous solubility, repeat using less water” value ([1]; water, dissolved in 0.05 mL)?
A: > 200 mg/mL

Q: What about the “Result of water slurry” value (Slurry studies; 20 mg in deionised water (200 μL)) of the same molecule?
A: complete dissolution of the sample

Q: And the “XRPD of solid after slurry versus starting form” value (Slurry studies)?
A: no differences in X-ray pattern

Q: For “N-[(3-fluoro-4-methoxypyridin-2-yl)methyl]-3-(methoxymethyl)-1-({4-[(2-oxopyridin-1-yl)methyl]phenyl}methyl)pyrazole-4-carboxamide edisylate [Form 16]”, which “%-Wt (dry basis)” value ([2]; adsorption, about 0 %-RH) is on record?
A: 1.612%

Q: And the “%-Wt (dry basis)” value ([2]; adsorption, about 10 %-RH)?
A: 2.367%

Q: And the “%-Wt (dry basis)” value ([2]; adsorption, about 20 %-RH)?
A: 2.626%

Q: And the “%-Wt (dry basis)” value ([2]; adsorption, about 30 %-RH)?
A: 2.834%

Q: What about the “%-Wt (dry basis)” value ([2]; adsorption, about 40 %-RH) of the same molecule?
A: 3.045%

Q: And the “%-Wt (dry basis)” value ([2]; adsorption, about 50 %-RH)?
A: 3.351%

Q: And the “%-Wt (dry basis)” value ([2]; adsorption, about 60 %-RH)?
A: 7.516%

Q: And the “%-Wt (dry basis)” value ([2]; adsorption, about 70 %-RH)?
A: 9.935%

Q: And the “%-Wt (dry basis)” value ([2]; adsorption, about 80 %-RH)?
A: 15.98%

Q: And the “%-Wt (dry basis)” value ([2]; adsorption, about 90 %-RH)?
A: 94.26%

Q: What about the “%-Wt (dry basis)” value ([2]; desorption, about 0 %-RH) of the same molecule?
A: 0.00047%

Q: What about the “%-Wt (dry basis)” value ([2]; desorption, about 5 %-RH) of the same molecule?
A: 2.866%

Q: What about the “%-Wt (dry basis)” value ([2]; desorption, about 15 %-RH) of the same molecule?
A: 4.495%

Q: And the “%-Wt (dry basis)” value ([2]; desorption, about 25 %-RH)?
A: 6.541%

Q: And the “%-Wt (dry basis)” value ([2]; desorption, about 35 %-RH)?
A: 9.564%

Q: And the “%-Wt (dry basis)” value ([2]; desorption, about 45 %-RH)?
A: 12.94%

Q: What about the “%-Wt (dry basis)” value ([2]; desorption, about 55 %-RH) of the same molecule?
A: 17.21%

Q: What about the “%-Wt (dry basis)” value ([2]; desorption, about 65 %-RH) of the same molecule?
A: 23.22%

Q: And the “%-Wt (dry basis)” value ([2]; desorption, about 75 %-RH)?
A: 33.16%

Q: And the “%-Wt (dry basis)” value ([2]; desorption, about 85 %-RH)?
A: 57.4%

— patent US11739068B2, “Polymorphs of N-[(3-fluoro-4-methoxypyridin-2-yl)methyl]-3-(methoxymethyl)-1-({4-[(2-oxopyridin-1-yl)methyl]phenyl}methyl)pyrazole-4-carboxamide and salts thereof” (KALVISTA PHARMACEUTICALS LIMITED, priority 2016, dated 2023)
